Test results as given in patent US12582652B2, “3-(ethoxydifluoromethyl)-6-(5-fluoro-6-(2,2,2-trifluoroethoxy)pyridin-3-yl)-[1,2,4]triazolo[4,3-a]pyrazine as an ion channel modulator” (Praxis Precision Medicines, Inc., priority 2022, dated 2026).

Legend:
[1] = in vivo
Source text: (§5) This was a 2-part randomized, placebo-controlled Phase 1 trial in healthy participants aged 18-55 years. […] PD effects were examined on quantitative EEG (qEEG; resting and vigilant conditions) and stimulated EEG using auditory steady state response (ASSR). A total of 48 participants were enrolled; Part A, n=30; Part B, n=18.

human NaV1.6 [2] = target: T1, human NaV1.6 (Homo sapiens, UniProt Q9UQD0); assay: ATX-II activated late (persistent) INa block, PatchXpress patch clamp; type: cell-based; settings: for IC50: hNaV1.6, ATX-II-evoked, holding −120 mV
T1 construct: stably expressing either human NaV1.6 (NP_055006); expressed in transfected cells
Method: (§1) HEK-293 cell lines stably expressing either human NaV1.6 (NP_055006), mouse NaV1.6 (NP_035453.2), or rat NaV1.6 (NP_062139) were used. All cells were seeded at 2×10^6 cells per Nunc T75 flask for 2 days in culture. At time of harvest for assays, the cell counts were approximately 6×10^6 cells. Cells were washed (1×) in DPBS (Hyclone, Cat #SH30028.03) for approximately 30 seconds. 1 mL of 1×0.05% Trypsin-EDTA (GIBCO Cat #25300-054) was added and swirled around to cover the bottom of the flask and was allowed to sit on the cells for approximately 4 minutes (±90% of the cells were lifted by light tapping of the flask). 10 mL of warmed media (DMEM high glucose media Hyclone, SH30022.02 supplemented with 10% Fetal Bovine Serum, 2 mM Sodium Pyruvate, 10 mM HEPES and 400 μg/mL G418) was added to inactivate the trypsin. Cells were triturated until a single cell suspension was achieved. A cell count was performed and cells were aliquoted into a 250 ml centrifuge tube at a concentration of 2×10^5/mL in +30 ml of prewarmed media. The 250 mL centrifuge tube was placed on a rocker in an incubator set at 28° C. and gently rocked for approximately 1 hour to allow cells to recover. Cell aliquots of 5 mL (1×10^6 cells) were placed in a 15 mL centrifuge tube and spun at 100×g for 2 minutes. Supernatant was removed leaving a cell pellet. 100 μL of external recording solution was added to the pellet and triturated 20 times to achieve a single cell suspension and then transferred to a 1.5 mL tube for placement in the PatchXpress® (Molecular Devices).
(§2) Compound 1 was provided as powder and prepared as 10 mM DMSO stocks in 1 dram glass vials prior to assay. Immediately prior to assay, Compound 1 was diluted with DMSO to 300×, the designated final assay concentration. Assay dilutions (1× concentration) were prepared by pipetting 3 μL of diluted Compound 1 into 897 μL of extracellular solution in a 1 mL glass shell vial. Vials were capped and vortexed until initiation of the PatchXpress® (Molecular Devices) recording protocol.
(§3) The same intracellular recording solution was used for the persistent and peak INa assays, which contained: 135 mM CsF, 10 mM CsCl, 5 mM NaCl, 10 mM HEPES, 5 mM EGTA at a pH of 7.4 (adjusted with CsOH) and a measured osmolarity of 298 mOsm (adjusted with mannitol). For the persistent INa assay, the external recording solution contained: 135 mM NaCl, 5.4 mM KCl, 5 mM glucose, 2 mM CaCl2), 1 mM MgCl2, 10 mM HEPES, and 200 nM ATX-II (sea anemone toxin, Alomone Labs; Jerusalem, Israel) at a pH of 7.4 (adjusted with NaOH) and a measured osmolarity of 300 mOsm (adjusted with mannitol). For the peak INa assays, the external recording solution contained: 100 mM NaCl, 35 mM NMDG, 5.4 mM KCl, 5 mM glucose, 2 mM CaCl2), 1 mM MgCl2, and 10 mM HEPES at a pH of 7.4 (adjusted with NaOH) and a measured osmolarity of 300 mOsm (adjusted with mannitol).
(§4) All studies were performed using the PatchXpress® (Molecular Devices) automated patch clamp platform (Molecular Devices) using the whole cell configuration. Recordings were performed at room temperature. Data were collected using Patch Commander software (Molecular Devices) and processed using DataXpress 2.0 (Molecular Devices). Cell acceptance criteria were continuously monitored by custom scripts during the recording. Acceptance criteria for all assays were: baseline peak INa>800 pA, Rseal>200 MΩ, and, where appropriate, persistent INa>100 pA. Compensation was 50% and leak subtraction was not used. Currents were filtered at 5 kHz and digitized at 32.5 kHz. Raccess and Rseal were monitored throughout the recording and cells with Raccess>10 MΩ or Rseal<200 MΩ were terminated automatically by script.
Late (persistent) current Block: The inhibition of ATX-II activated late current was measured using a 200 ms voltage step to 0 mV. Protocols used low stimulation rates (about 0.1 Hz) and negative potentials (−120 mV) to keep channels in closed (resting) states.

human NaV1.6 [3] = target: T1, human NaV1.6; assay: Peak INa tonic block (TB), PatchXpress patch clamp; type: cell-based; settings: for IC50: hNaV1.6, 0.1 Hz, resting state
Method: as §1, §2, §3, §4
Tonic Block (TB): Tonic Block (TB) protocols used low stimulation rates (about 0.1 Hz) and negative potentials (−120 mV) to keep channels in closed (resting) states. Pharmacology was measured during peak INa in response to step to 0 mV. No leak subtraction was used.

human NaV1.6 [4] = target: T1, human NaV1.6; assay: Peak INa use-dependent block (UDB-10 Hz), PatchXpress patch clamp; type: cell-based
human NaV1.6 [5] = target: T1, human NaV1.6; assay: Peak INa voltage-dependent block (VDB), PatchXpress patch clamp; type: cell-based; settings: for IC50: hNaV1.6, half-inactivated (V1/2); for Ratio to Pers. INa (Peak INa VDB / persistent INa): hNaV1.6
Method: as §1, §2, §3, §4
Voltage Dependent Block (VDB): VDB protocols used a depolarized voltage to keep channels in half-inactivated (resting) states. This allowed equilibrium binding and accurate determination of isoform selectivity (in the absence of biological features).

male CD-1 mice [6] = assay: Maximal electroshock induced seizure (MES) test; type: in vivo, mouse; settings: for protection (increase in latency) against MES-induced tonic hindlimb seizures, dose-response: Compound 1 0.3-10 mg/kg po; for ED50: mouse MES, read-out: Efficacy (MES) ED50, increasing latency to tonic extension seizures
Method: Food and water were available ad libitum.
VPA was prepared in saline (Vehicle 1). All solutions were protected from light. All compounds and vehicles were dosed at 10 ml/kg.
The MES test was carried out over two days with 6 of 12 mice from each treatment group being tested on each day. Mice were brought to the test room at least one hour before the start of the experiment.
A Grass S88x (Grass Technologies of Astro-Med, Inc., West Warwick, RI) Stimulus Isolation Unit (A385, WPI Inc., USA) was set to deliver a 50 mA square-wave stimulus, with a 0.8 second duration, a pulse width of 10 msec, and a frequency of 50 Hz. A pair of custom stainless steel electrodes were soaked in 0.2% Agar, and then the subject received bilateral transauricular stimulation through ear-clip electrodes. During the stimulation, mice were manually restrained. They were then released into the observation cage for convulsion observation for 60 seconds immediately after stimulation. Each mouse was observed continuously by individuals blinded to treatment conditions and results were recorded.
Anti-seizure assessment endpoints were: (1) latency of hindlimb tonic flexion; (2) latency of hindlimb tonic extension; (3) total #hindlimb tonic flexions; (4) total #hindlimb tonic extensions; (5) latency to death; and (6) mortality rate
From these fitted curves, ED50 and EC50 values were calculated.

male CD-1 mice [7] = assay: Spontaneous locomotor activity (sLMA) test; settings: for sLMA distance moved, dose-response: Compound 1 10-40 mg/kg po; for Tolerability (sLMA) TD50: dose reducing sLMA by 50%
Method: Male CD-1 mice, 6-weeks old, were obtained from Vital River (Beijing, China). The average body weight was 25-35 g at the time the experiments were carried out. The mice were housed in groups of 3-5 under controlled conditions (temperature: 20-26° C.; humidity: 40-70%; air exchange rate: 10-15 cycles/hour; 12:12 light-dark cycle with lights on at 5:00 a.m.). Food and water were available ad libitum. The mice were acclimated to these conditions for 6 days before the start of the studies.
Dosing solutions were prepared on each experiment day. […] All solutions were protected from light. Samples from dosing solutions were stored at 4° C. Both compound and vehicle were dosed at 10 ml/kg.
The sLMA test was carried out over two days. 5 of 10 mice from each treatment group were tested on each day. All animals were marked on the tail with a permanent marker and weighed. Mice were randomly assigned into one of the four treatment groups. Animals were acclimated to the test room at least 30 minutes before the start of the experiment.
Possible side effects, such as overt sedation, were recorded just before the start of the sLMA test.
Each mouse was automatically tracked with overhead cameras using a 1-minute sampling window in an isolated chamber. Spontaneous locomotor activity was then analyzed offline using the Animal Behavior Video Tracking Analysis System (Ji Liang Software Technology Co., Ltd., Shanghai, China).
Locomotor status was defined as >2 mm of movement in every 200 ms (Frame-rate recorded was 20 frames/second. Locomotor status was identified in every 4 frame-to-frame interval. The accumulated shift of tracking spots that exceeded 2 mm in every 4 frame intervals was identified as a locomotor epoch). Traveling distance was calculated automatically from all the locomotion epochs and analyzed.
All mice were anesthetized with CO2. Then, terminal plasma and brain tissue samples were collected from animals in the drug treatment groups. 500 μL whole blood was collected via cardiac puncture and placed in tubes with 10 μL EDTAK2. The tubes were then placed in wet ice until centrifuged at 2000 g for 5 minutes at 4° C. The supernatant plasma was pipetted into Eppendorf tubes.
All statistical analyses were conducted using GraphPad Prism 7.0. Data are presented as mean±s.e.m., and p<0.05 was regarded as statistically significant.
Dose-response and concentration-response curves for plasma and brain were fitted for each end-point using GraphPad Prism. From these fitted curves, TD50 and TC50 values were calculated.

healthy participants = assay: 2-part Phase 1 trial (28 days; OXC combination): safety and tolerability; type: in vivo, human; settings: Part B, per arm
Source text: as §5

T1 sequence (Q9UQD0 whole entry): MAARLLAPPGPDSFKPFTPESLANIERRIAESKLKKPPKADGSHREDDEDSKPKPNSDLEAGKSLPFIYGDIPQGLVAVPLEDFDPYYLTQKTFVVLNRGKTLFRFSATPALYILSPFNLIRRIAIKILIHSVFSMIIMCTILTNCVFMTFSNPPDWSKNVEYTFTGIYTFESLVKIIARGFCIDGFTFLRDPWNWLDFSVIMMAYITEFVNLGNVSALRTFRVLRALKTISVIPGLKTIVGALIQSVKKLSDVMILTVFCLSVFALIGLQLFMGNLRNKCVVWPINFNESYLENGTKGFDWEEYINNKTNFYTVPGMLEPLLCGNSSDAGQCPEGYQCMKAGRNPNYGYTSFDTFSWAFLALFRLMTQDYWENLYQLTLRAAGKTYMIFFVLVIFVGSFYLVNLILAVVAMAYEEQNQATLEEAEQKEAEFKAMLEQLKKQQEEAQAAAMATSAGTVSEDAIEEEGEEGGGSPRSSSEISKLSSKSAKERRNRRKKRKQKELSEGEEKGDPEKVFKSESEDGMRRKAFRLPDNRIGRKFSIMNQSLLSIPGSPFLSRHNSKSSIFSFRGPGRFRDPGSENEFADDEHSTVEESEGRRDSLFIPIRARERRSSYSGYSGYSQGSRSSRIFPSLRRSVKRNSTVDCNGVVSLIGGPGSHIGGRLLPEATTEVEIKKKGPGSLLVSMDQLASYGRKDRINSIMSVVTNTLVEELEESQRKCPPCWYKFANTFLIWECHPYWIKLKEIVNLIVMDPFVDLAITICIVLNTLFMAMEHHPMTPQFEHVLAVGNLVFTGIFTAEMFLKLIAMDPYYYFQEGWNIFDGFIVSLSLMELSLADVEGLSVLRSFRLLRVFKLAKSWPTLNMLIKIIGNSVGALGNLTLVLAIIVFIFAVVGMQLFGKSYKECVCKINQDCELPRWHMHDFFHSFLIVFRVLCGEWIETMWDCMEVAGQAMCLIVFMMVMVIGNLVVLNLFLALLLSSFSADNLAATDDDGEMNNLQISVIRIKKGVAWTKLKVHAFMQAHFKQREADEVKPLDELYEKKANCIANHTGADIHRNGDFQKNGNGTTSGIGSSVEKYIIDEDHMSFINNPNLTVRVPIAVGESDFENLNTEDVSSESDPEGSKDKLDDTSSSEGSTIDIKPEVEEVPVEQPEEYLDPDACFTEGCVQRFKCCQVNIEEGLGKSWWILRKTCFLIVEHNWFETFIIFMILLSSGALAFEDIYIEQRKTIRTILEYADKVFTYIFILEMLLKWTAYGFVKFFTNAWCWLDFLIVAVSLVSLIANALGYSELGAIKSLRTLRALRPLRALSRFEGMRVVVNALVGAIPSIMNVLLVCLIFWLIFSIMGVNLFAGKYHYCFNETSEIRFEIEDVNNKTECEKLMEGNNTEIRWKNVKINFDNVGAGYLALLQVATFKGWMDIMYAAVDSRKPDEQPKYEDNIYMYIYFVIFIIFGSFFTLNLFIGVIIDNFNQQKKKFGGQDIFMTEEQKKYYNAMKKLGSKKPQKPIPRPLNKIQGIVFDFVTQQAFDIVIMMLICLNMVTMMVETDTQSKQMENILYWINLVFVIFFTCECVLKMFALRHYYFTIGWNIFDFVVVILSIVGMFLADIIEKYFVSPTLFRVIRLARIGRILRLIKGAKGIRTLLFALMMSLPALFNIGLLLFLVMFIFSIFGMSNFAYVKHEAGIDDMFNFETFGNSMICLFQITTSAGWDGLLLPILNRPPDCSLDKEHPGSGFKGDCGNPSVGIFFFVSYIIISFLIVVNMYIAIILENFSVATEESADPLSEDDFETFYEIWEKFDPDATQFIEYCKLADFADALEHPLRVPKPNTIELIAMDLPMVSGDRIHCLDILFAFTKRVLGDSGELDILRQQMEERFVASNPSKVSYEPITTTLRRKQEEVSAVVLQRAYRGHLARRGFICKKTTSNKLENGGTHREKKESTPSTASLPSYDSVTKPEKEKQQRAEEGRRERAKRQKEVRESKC

NC(=O)N1c2ccccc2CC(O)c2ccccc21 (stereo not shown) [10-Hydroxycarbamezapine]
exposure when administered concomitantly with Compound 1 vs alone [1]: appeared to be similar

NC(=O)N1c2ccccc2C=Cc2ccccc21 [Carbamazepine, reference compound]
IC50 (human NaV1.6 [2]): 77.5 µM
IC50 (human NaV1.6 [3]): 2310 µM
IC50 (human NaV1.6 [4]; hNaV1.6, 10 Hz): 1420 µM
use-dependent block at stimulation frequency of 10 Hz (human NaV1.6 [4]; hNaV1.6, 10 Hz): not observed
use-dependent block at increased frequencies (human NaV1.6 [4]; hNaV1.6, 10 Hz, 30 Hz or 50 Hz): could be observed
IC50 (human NaV1.6 [5]): 44.4 µM
mice protected against MES-induced tonic hindlimb seizures (male CD-1 mice [6]; CBZ 30 mg/kg): all mice
protection (increase in latency) against MES-induced tonic hindlimb seizures, dose-response (male CD-1 mice [6]): dose-dependent protection
ED50 (male CD-1 mice [6]): 5 mg/kg
sLMA at the dose required for complete seizure prevention (male CD-1 mice [7]; CBZ): significant reduction
sLMA distance moved, dose-response (male CD-1 mice [7]): dose-dependent reductions
PI (Brain) (male CD-1 mice [7]; brain TC50 (sLMA) / brain EC50 (MES), free concentrations): 5.9
Tolerability (sLMA) TD50 (male CD-1 mice [7]): 37.6 mg/kg
PI (Plasma) (male CD-1 mice [7]; plasma TC50 (sLMA) / plasma EC50 (MES), free concentrations): 3.4

NC(=O)O[C@@H](Cn1ncnn1)c1ccccc1Cl [Cenobamate]
IC50 (human NaV1.6 [2]): 71.7 µM
Ratio to Pers. INa (Peak INa TB / persistent INa) (human NaV1.6 [3]; hNaV1.6): 24
IC50 (human NaV1.6 [3]): 1720 µM
Ratio to Peak INa (TB) (UDB-10 Hz) (human NaV1.6 [4]; hNaV1.6): 2.3
Ratio to Pers. INa (Peak INa UDB-10 Hz / persistent INa) (human NaV1.6 [4]; hNaV1.6): 11
IC50 (human NaV1.6 [4]; hNaV1.6, 10 Hz): 749 µM
Ratio to Pers. INa (Peak INa VDB / persistent INa) (human NaV1.6 [5]): 0.9
IC50 (human NaV1.6 [5]): 66.7 µM

COC[C@@H](NC(C)=O)C(=O)NCc1ccccc1 [Lacosamide]
IC50 (human NaV1.6 [2]): 833 µM
Ratio to Pers. INa (Peak INa UDB-10 Hz / persistent INa) (human NaV1.6 [4]; hNaV1.6): 0.8
IC50 (human NaV1.6 [4]; hNaV1.6, 10 Hz): 682 µM
Ratio to Pers. INa (Peak INa VDB / persistent INa) (human NaV1.6 [5]): 0.3
IC50 (human NaV1.6 [5]): 269 µM

Nc1nnc(-c2cccc(Cl)c2Cl)c(N)n1 [Lamotrigine, reference compound]
protection (increase in latency) against MES-induced tonic hindlimb seizures, dose-response (male CD-1 mice [6]): dose-dependent protection
mice protected against MES-induced tonic hindlimb seizures (male CD-1 mice [6]; LTG 10 mg/kg, highest dose tested): eight of 12
ED50 (male CD-1 mice [6]): 3.4 mg/kg
sLMA distance moved, dose-response (male CD-1 mice [7]): dose-dependent reductions
Tolerability (sLMA) TD50 (male CD-1 mice [7]): 26.5 mg/kg

NC(=O)N1c2ccccc2CC(=O)c2ccccc21 [Oxcarbazepine]
IC50 (human NaV1.6 [2]): 124 µM
Ratio to Pers. INa (Peak INa TB / persistent INa) (human NaV1.6 [3]; hNaV1.6): 8
IC50 (human NaV1.6 [3]): 1040 µM
Ratio to Pers. INa (Peak INa VDB / persistent INa) (human NaV1.6 [5]): 0.3
IC50 (human NaV1.6 [5]): 42 µM
patients in whom TEAEs were observed (number) (healthy participants): 3
patients in whom TEAEs were observed (percent) (healthy participants): 75%
exposure when administered concomitantly with Compound 1 vs alone [1]: appeared to be similar

O=C1NC(=O)C(c2ccccc2)(c2ccccc2)N1 [Phenytoin]
IC50 (human NaV1.6 [2]): 59.8 µM
Ratio to Pers. INa (Peak INa UDB-10 Hz / persistent INa) (human NaV1.6 [4]; hNaV1.6): 15
IC50 (human NaV1.6 [4]; hNaV1.6, 10 Hz): 877 µM
Ratio to Pers. INa (Peak INa VDB / persistent INa) (human NaV1.6 [5]): 0.8
IC50 (human NaV1.6 [5]): 47.8 µM

CCCC(CCC)C(=O)O [Valproic acid]
inhibition at 1000 µM (human NaV1.6 [2]; hNaV1.6, 1 mM): 2%
inhibition at 1000 µM (human NaV1.6 [3]; hNaV1.6, 1 mM): 11%
inhibition at 1000 µM (human NaV1.6 [4]; hNaV1.6, 1 mM): 8%
